Laboratory results taken from PMC12087874, “Biaryl Phosphates and Phosphonates as Selective Inhibitors of the Transcription Factor STAT4” (Angewandte Chemie (International Ed. in English), 2025).
“Also recorded” adds a separate entry of the source. Like-named read-outs stand apart in the source and are kept apart here. Square brackets hold non-standard residues; d marks the D form. Peptide text beside a SMILES is read from it. pY = N[C@@H](Cc1ccc(OP(=O)(O)O)cc1)C(=O)O

What was measured:
[1] = target: T1, STAT4 (Homo sapiens, UniProt Q14765); experiment: Competitive fluorescence polarization (FP) assay, STAT4 SH2 domain; type: binding; conditions: FP assay, tracer 5-carboxyfluorescein-GpYLPQNID-OH; Ki derived from IC50; mean ± SD, n = 3; read-out: STAT4 K i
T1 sequence (Q14765 1-748): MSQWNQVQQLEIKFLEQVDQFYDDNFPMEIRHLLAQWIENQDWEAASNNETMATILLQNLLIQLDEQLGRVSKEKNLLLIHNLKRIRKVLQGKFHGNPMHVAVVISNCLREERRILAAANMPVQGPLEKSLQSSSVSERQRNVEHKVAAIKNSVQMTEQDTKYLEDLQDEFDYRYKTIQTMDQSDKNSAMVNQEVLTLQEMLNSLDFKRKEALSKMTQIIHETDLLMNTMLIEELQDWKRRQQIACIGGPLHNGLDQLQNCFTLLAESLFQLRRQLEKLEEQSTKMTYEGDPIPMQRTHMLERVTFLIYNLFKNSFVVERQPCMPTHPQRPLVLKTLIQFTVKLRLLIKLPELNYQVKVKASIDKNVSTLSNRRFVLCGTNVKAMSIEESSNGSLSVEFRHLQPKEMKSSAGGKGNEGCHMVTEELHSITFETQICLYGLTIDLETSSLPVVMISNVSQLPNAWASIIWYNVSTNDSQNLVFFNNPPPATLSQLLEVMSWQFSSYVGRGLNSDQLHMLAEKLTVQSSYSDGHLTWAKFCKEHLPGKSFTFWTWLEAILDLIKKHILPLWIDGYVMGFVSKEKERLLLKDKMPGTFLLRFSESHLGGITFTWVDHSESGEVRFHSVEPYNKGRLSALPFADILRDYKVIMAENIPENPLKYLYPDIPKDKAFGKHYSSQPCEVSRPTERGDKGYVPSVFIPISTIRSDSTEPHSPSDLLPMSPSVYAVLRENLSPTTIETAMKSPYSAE
Description: (§1) Fluorescence polarization assays
(§2) Competitive fluorescence polarization assays, which measure the abilities of test compounds (dissolved in DMSO) to displace a fluorescent-labeled peptide from the SH2 domain of a STAT protein, were carried out essentially as described. Proteins were used at the following final concentrations: 23 nM or 28 nM for STAT4; between 56 nM and 91 nM for STAT1; 107 nM or 110 nM for STAT3; between 131 nM and 177 nM for STAT5a; between 62 nM and 85 nM for STAT5b; and 101 nM or 106 nM for STAT6. These concentrations represent the approximate […]
(§3) dissociation constant for peptide binding of the respective protein batches used in the assays.
(§4) The following peptides were used: 5-carboxyfluorescein-GpYLPQNID-OH for STAT4; 5-carboxyfluorescein-GpYDKPHVL for STAT1; 5-carboxyfluorescein-GpYLPQTV-NH2 for STAT3; 5-carboxyfluorescein-GpYLVLDKW for STAT5a/b, and 5-carboxyfluorescein- […]
(§5) Gp[…]-OH for STAT6. All peptides were used at a final concentration of 10 nM. The buffer consisted of 10 mM Tris (pH 8.0), 50 mM NaCl, 1 mM EDTA, 1 mM DTT, 0 .1 % Nonidet P-40 substitute, and 2 % DMSO. After incubation of protein and test compound for 1 h at room temperature, the fluorescent -labeled peptide was added. Samples were transferred to 384 - well microtiter plates and fluorescence polarization was read after an additional 60 min of incubation time. Measurements were performed in triplicate. Percent binding was calculated based on a logarithmic curve fit using OriginPro 8G software. IC 50 values were converted to Ki-values via the published equation[3] using the corresponding Excel spread sheet […]
(§6) https://websites.umich.edu/~shaomengwanglab/software/calc_ki/index.html .
(§7) Error bars represent standard deviations. Ligand efficiencies (LE) were calculated by the formula LE = -1,37 x log Ki / number of non-hydrogen atoms.[4] […]

[2] = target: T2, STAT1 (Homo sapiens, UniProt P42224); experiment: Competitive fluorescence polarization (FP) assay, STAT1 SH2 domain; type: binding; conditions: tracer 5-carboxyfluorescein-GpYDKPHVL, Ki derived from IC50
T2 sequence (P42224 1-750): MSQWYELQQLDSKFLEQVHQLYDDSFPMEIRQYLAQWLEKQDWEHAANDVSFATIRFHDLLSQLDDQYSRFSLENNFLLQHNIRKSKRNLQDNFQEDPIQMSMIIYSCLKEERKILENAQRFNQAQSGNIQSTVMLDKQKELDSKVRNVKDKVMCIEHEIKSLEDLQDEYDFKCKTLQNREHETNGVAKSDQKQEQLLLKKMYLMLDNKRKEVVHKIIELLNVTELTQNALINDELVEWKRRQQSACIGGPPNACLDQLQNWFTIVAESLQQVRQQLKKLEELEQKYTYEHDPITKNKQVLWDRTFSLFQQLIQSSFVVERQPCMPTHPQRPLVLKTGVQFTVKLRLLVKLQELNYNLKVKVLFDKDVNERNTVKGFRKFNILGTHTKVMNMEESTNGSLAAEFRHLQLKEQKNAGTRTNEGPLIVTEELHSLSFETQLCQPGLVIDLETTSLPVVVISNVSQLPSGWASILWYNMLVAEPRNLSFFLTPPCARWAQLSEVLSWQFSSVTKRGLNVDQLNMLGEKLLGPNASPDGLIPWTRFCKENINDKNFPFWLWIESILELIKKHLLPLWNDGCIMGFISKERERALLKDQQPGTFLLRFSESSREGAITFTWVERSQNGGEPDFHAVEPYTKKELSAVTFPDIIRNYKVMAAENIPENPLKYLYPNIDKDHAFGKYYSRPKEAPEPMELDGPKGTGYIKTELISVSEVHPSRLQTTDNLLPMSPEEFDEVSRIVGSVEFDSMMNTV
Description: as §1, §2, §3, §4, §5, §6, §7

[3] = target: T3, STAT3 (Homo sapiens, UniProt P40763); experiment: Competitive fluorescence polarization (FP) assay, STAT3 SH2 domain; type: binding; conditions: tracer 5-carboxyfluorescein-GpYLPQTV-NH2, Ki derived from IC50
Description: as §1, §2, §3, §4, §5, §6, §7
Target sequence in this assay (P40763 whole entry, species assumed, the tested form may be a part): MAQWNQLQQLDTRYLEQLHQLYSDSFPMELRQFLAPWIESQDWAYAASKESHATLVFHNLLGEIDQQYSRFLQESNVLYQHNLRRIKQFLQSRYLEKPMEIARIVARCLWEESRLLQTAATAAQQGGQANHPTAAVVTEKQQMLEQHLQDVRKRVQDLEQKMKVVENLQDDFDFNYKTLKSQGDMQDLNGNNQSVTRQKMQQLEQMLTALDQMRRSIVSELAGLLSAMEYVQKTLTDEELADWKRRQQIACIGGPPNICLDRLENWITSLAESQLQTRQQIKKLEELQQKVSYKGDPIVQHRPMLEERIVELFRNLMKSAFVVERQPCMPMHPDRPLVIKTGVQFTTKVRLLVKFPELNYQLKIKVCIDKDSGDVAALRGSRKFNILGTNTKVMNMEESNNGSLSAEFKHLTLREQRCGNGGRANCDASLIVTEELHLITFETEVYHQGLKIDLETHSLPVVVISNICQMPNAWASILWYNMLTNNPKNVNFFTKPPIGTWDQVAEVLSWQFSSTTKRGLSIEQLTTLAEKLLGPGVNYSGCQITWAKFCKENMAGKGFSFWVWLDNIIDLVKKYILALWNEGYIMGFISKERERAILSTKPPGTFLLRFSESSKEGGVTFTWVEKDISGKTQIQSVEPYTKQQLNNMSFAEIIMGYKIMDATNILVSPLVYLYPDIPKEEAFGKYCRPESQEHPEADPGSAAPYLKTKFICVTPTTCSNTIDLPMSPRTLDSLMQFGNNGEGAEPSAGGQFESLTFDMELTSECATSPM

[4] = system: STAT5a/5b; experiment: STAT5a/5b phosphorylation in K562 cells (Western blot); type: cell-based, human; conditions: Tyr694 (STAT5a)/Tyr699 (STAT5b), read-out: IC 50, STAT5a/5b‐phosphorylation
Description: (§8) Cells were […]
harvested by washing twice with ice -cold TBS, followed by resuspension in TBS supplemented with protease/phosphatase inhibitors (100 ng/ml aprotinin, 1 mM Na3VO4, 10 mM NaF, 1 mM […]
(§9) The components of cell lysates from treated cells, or heat-treated lysates from CETSA, were separated by SDS-PAGE (10%), transferred to nitrocellulose membrane (Bio-Rad) and detected using monoclonal rabbit primary antibodies (Cell Signaling), α-rabbit-HRP secondary antibody (Dako) and Western Lightning Plus chemiluminescence reagent (Perkin Elmer).
(§10) Bands were visualized using an ImageQuant system (GE Healthcare) and quantitated using ImageJ software (NIH). […]
(§11) The sitting drop was composed of 0.1 µl protein solution and 0.1 µl reservoir solution. Plates were stored at 19°C in a protein […]
(§12) In the first set of experiments, w e tried to crystallize STAT4 as a SUMO -STAT4 fusion protein […]
(§13) was cleaved off as described above.
Screening for crystallization conditions for tag-free STAT4 was performed both in the absence or presence of 1 equivalent of 6m or 6h. Since the chosen protein concentration of 3.6 mg/ml appeared to be too low, screening was repeated with a higher concentration of 6.4 mg/ml STAT4 for all conditions (corresponding to 100 µM 6m). Both the SUMO-STAT4 and the tag-free STAT4 preferentially precipitated under conditions containing polyethylene glycol. […]

[5] = system: IFN‐γ induction; experiment: IL-12/IL-18-mediated IFN-γ induction in NK-92 cells; type: cell-based, human; conditions: 4 h, 50 ng/ml IL-12 and 10 ng/ml IL-18
Description: (§14) NK-92 cells (DSMZ) were cultured in α-MEM containing 12.5% fetal bovine serum (FBS), 12.5% horse serum, 2 mM L-glutamine, penicillin/streptomycin and 50 U/ml IL -2. […]
(§15) NK-92 cells were treated with test compound or DMSO in 1.5 ml medium in 12 -well plates (Corning) for 2 h (final DMSO concentration 0.2%), in the presence of 50 ng/ml IL -12 (PeproTech). For IFN-γ experiments (Figure 6 and S6), NK -92 cells or TALL-104 cells were treated for 4 h in the presence of 50 ng/ml IL-12 and 10 ng/ml IL-18 (Bio-Techne). […]
as §9, §10, §11, §12, §13
Screening for crystallization conditions for tag-free STAT4 was performed both in the absence or presence of 1 equivalent of 6m or 6h. […]

[6] = system: IFN‐γ induction; experiment: IFN-γ induction in TALL-104 cells; type: cell-based, human; conditions: 4 h, IL-12 or IL-12 and IL-18
Description: as §14, with “-2. TALL-104 cells (ATCC, LGC Standards) were cultured in RPMI 1640 medium containing 20% FBS, 2 mM L - glutamine, penicillin/streptomy cin and 100 U/ml IL-2.” for “-2.”
as §15, §9, §10, §11, §12
(§16) was cleaved off as described above. […]

[7] = target: T3, STAT3; experiment: STAT3 Tyr705 phosphorylation in HCC-827 cells (Western blot); type: cell-based; parameters: endogenous in cells; conditions: serum-free conditions, read-out: IC 50, phosphorylation of STAT3 (Tyr705)
Description: HCC-827 cells (DSMZ) and K562 cells
(DSMZ) were cultured in RPMI 1640 medium containing 10% FBS, 2 mM L -glutamine and penicillin/streptomycin. HCC -827 cells were subcultured by briefly rinsing with sterile PBS followed by incubation with 0.25% Trypsin-EDTA solution before inactivation by addition of cell culture medium (all reagents apart from cell lines were from Gibco at Thermo Fisher Scientific). […]
as §8
Target sequence in this assay (P40763 whole entry, the tested form may be a part): as the sequence (P40763 whole entry, species assumed, the tested form may be a part) above
harvested by washing twice with ice -cold TBS, followed by resuspension in TBS supplemented with protease/phosphatase inhibitors (100 ng/ml aprotinin, 1 mM Na3VO4, 10 mM NaF, 1 mM PMSF). The adherent HCC-827 cells were mechanically separated from the culture surface using plastic cell scrapers (A. Hartenstein). […]
as §9, §10, §11

[8] = target: T1, STAT4; experiment: IL-12-induced STAT4 Tyr693 phosphorylation in NK-92 cells (Western blot); type: cell-based; parameters: utilizing cellular lysates from the STAT4‐expressing natural killer cell line NK‐92; endogenous in cells; host or cells: NK-92 (DSMZ)
Description: as §14, §9, §10, §11, §12, §13
Screening for crystallization conditions for tag-free STAT4 was performed both in the absence or presence of 1 equivalent of 6m or 6h. Since the chosen protein concentration of 3.6 mg/ml appeared to be too low, screening was repeated with a higher concentration of 6.4 mg/ml STAT4 for all conditions (corresponding to 100 µM 6m). Both the SUMO-STAT4 and the tag-free STAT4 preferentially precipitated under conditions containing polyethylene glycol. In one set of experiments, we also screened for conditions in the presence of the high-affinity peptide GY(PO3H2)LPQNID adapted from the IL-12 receptor. However, none of the conditions resulted in the growth of STAT4 crystals (Table S4).

[9] = target: T1, STAT4; experiment: STAT4 phosphorylation in TALL-104 cells stimulated by IL-12 or IL-12 and IL-18; type: cell-based; parameters: utilizing cellular lysates from the STAT4‐expressing natural killer cell line NK‐92; endogenous in cells; host or cells: NK-92 (DSMZ); conditions: 4 h
Description: as §14, with “-2. TALL-104 cells (ATCC, LGC Standards) were cultured in RPMI 1640 medium containing 20% FBS, 2 mM L - glutamine, penicillin/streptomy cin and 100 U/ml IL-2.” for “-2.”
as §15, §9, §10, §11, §12, §16

`CC[C@H](C)[C@H](NC(=O)[C@H](CC(N)=O)NC(=O)[C@H](CCC(N)=O)NC(=O)[C@@H]1CCCN1C(=O)[C@H](CC(C)C)NC(=O)[C@H](Cc1ccc(OP(=O)(O)O)cc1)NC(=O)CNC(C)=O)C(=O)N[C@@H](CC(=O)O)C(=O)O` [Ac‐GpYLPQNID, reference compound] (Ac-G[pY]LPQNID-OH) gave a Ki [1] of 0.22 ± 0.02 µM, a Ki [2] of 0.36 ± 0.08 µM and a Ki [3] of 0.24 ± 0.04 µM.

In the case of `Cc1cc(-c2ccc(C(F)(F)P(=O)(OCOC(=O)C(C)(C)C)OCOC(=O)C(C)(C)C)c(F)c2)cs1` [Compound 9], the IC50 [4] is reported as > 25 µM, the “IL12/IL‐18‐mediated IFN‐γ induction” value [5] is reported as “strongly reduced; also recorded: inhibits” and the “IFN‐γ induction” value [6] is reported as “inhibited”. For the same molecule, the IC50 [7] was 19 µM, the “inhibition of IL‐12‐induced STAT4 Tyr693 phosphorylation” value (“inhibition” for short) ([8]; 2 h, presence of 25% serum) was “moderately inhibits” and the IC50 ([8]; 2 h, presence of 25% serum, read-out: IC 50, IL‐12‐induced STAT4 phosphorylation) was 77 µM. For the same molecule, the “IL‐12/IL‐18‐mediated STAT4 phosphorylation” value ([8]; 4 h, 50 ng/ml IL-12 and 10 ng/ml IL-18) was “strongly reduced; also recorded: inhibits”, the IC50 ([8]; IL-12, absence of serum, read-out: IC 50, STAT4 Tyr693 phosphorylation) was 3.3 µM and the “STAT4 phosphorylation stimulated by IL‐12 alone or co‐stimulated by IL‐12 and IL‐18” value [9] was “inhibited”.

`CC(C)(C)C(=O)OCOP(=O)(Cc1ccc(-c2ccc3ccccc3c2)cc1F)OCOC(=O)C(C)(C)C` [Compound 10] was tested, and the “inhibition” value ([8]; 2 h, presence of 25% serum) was “inactive; also recorded: does not” and the “inhibition” value ([8]; absence of serum) was “still inactive”.
